Assay results: patent US6642214B1, “Detoxication of active pharmaceutical substances using cyclodextrine oligomers” (CeramOptec Industries, Inc., priority 1997, dated 2003)

Columns and labels:
[1] = Affinity constants of β-cyclodextrin dimers/trimers for guest compounds (competition with TNS, fluorescence spectroscopy); type: binding
Experimental: Binding constants can be determined in competition with 6-(p-toluidino)-2-naphthalenesulfonic acid (TNS). The measurement is performed by fluorescence spectroscopy according to Ruebner et al. (loc. cit.).
Due to the cyclodextrins being bonded on the secondary side, the cavities of the cyclodextrins are oriented towards each other. The cyclodextrins are preferably β-cyclodextrins. The distance between the cyclodextrin units is determined by selecting the spacer. Depending on the size of the compound to be enclosed, the spacer is selected such that the distance between the at least two cavities approximately matches the distance between two hydro-phobic groups of the pharmaceutically active substance. Preferred spacings are within a range of about 0.6 to 2 nm, more preferably in a range of about 0.8, 1.0, 1.2, 1.4, 1.6 and 1.8 nm.
Such rigid spacers can also be achieved by the use of appropriately functionalized (hetero)aromatics. For example, rigid spacers prevent too high a conformational flexibility, such as twisting of the two cyclodextrins involved in the binding. […] By the use of rigid spacers, affinity constants within a range of greater than 10^6, preferably greater than 10^7 and more preferably greater than 10^8 l/mol are achieved. Thus, rigid spacers are those which achieve correspondingly high stability constants of the complexes together with cyclodextrins involved in the binding and appropriate guest compounds.

[2] = Complex binding constant in competitive reaction with toluidinonaphthalenesulfonic acid; conditions: guest paclitaxel; competition with toluidinonaphthalenesulfonic acid; read-out: complex binding constant Ktaxol
Experimental: 250 mg (100 μmol) of the CD dimer di-β-CD(2N-A4C5A4) (see FIG. 5) was dissolved in 1 l of aqueous buffer (pH 7.35, Hepes 25 mM) at 60° C. and kept at this temperature with vigorous stirring. 8.5 mg of paclitaxel (10 μmol) was dissolved in 1 ml of dimethyl sulfoxide and added dropwise to the mixture with vigorous stirring. The mixture was kept at 60° C. for 24 hours with stirring, followed by cooling and freeze-drying the mixture.

[3] = spacer length 15-16 Å, guests paclitaxel, docetaxel

Substance: di-β-CD(—NH—(C2H4)—SH-[6-(β,γ)-CD-6]-SH—(C2H4)—NH—)
- Affinity constant, measured/estimated [1, 3]: 3 · 10^9 (trimer) l/mol

Substance: di-β-CD(—NH—(C2H4)—SH—[6-α-CD-6]—SH—(C2H4)—NH—)
- Affinity constant, measured/estimated ([1]; spacer length 13-14 Å, guests vinblastin, vincristin): ˜10^8 l/mol

Substance: di-β-CD(—NH—(C3H6)—NHCO—(C3H6)—CONH—(C3H6)—NH—) [A3C5A3]
- Affinity constant, measured/estimated ([1]; spacer length 11-12 Å, guests colchicine, colchemide): 10^6-10^7 l/mol

Substance: di-β-CD(—NH—(C4H8)—NHCO—(C3H6)—CONH—(C4H8)—NH—) [A4C5A4]
- Affinity constant, measured/estimated [1, 3]: 10^7 (dimer)- l/mol
- Kd [2]: 1400 nM

Substance: di-β-CD(—NH—(C8H16)—NH—) [octyl-α,ω-diamide]
- Affinity constant, measured/estimated ([1]; spacer length 7-8 Å, guests 3^1,8^1-(di-t-butylphenoxy)-porphyrinoids, (tamoxifene), phenytoin): 10^6-10^7 l/mol
